Measured values as given in patent publication US20200172486A1, “PYRIDONE COMPOUNDS AND AGRICULTURAL AND HORTICULTURAL FUNGICIDES CONTAINING THE SAME AS ACTIVE INGREDIENTS” (MITSUI CHEMICALS AGRO, INC., priority 2017, published 2020).

Key:
[1] = system: cabbage alternaria sooty spot fungi (Alternaia brassicicola); assay: Test Example C: cabbage alternaria sooty spot, spray test on potted cabbage plants; details: in Brassica oleracea, read-out: control value
Text: Control value=100{1−(n/3)}
Test plants (cabbage variety: Shikidori) were cultivated until the cotyledons extended after the sowing of seeds.

[2] = system: cucumber anthracnose fungi (Colletotrichum orbiculare); assay: Test Example H: cucumber anthracnose, spray test on potted cucumber plants; details: in Cucumis sativus, read-out: control value
[3] = system: gray mold fungi (Botrytis cinerea); assay: Test Example B: tomato gray mold, spray test on potted tomato plants; details: in Solanum lycopersicum, read-out: control value
Text: Control value=100{1−(n/3)}
Test plants (tomato variety: Oogata Fukuju) were cultivated until three to five first leaves (true leaves) appeared after the sowing of seeds.

`CCn1c(-c2c(F)cccc2F)c(NC(=O)OC(C)(C)C)cc(Cl)c1=O` [Compound 1, tert-butyl (5-chloro-2-(2,6-difluorophenyl)-1-ethyl-6-oxo-1,6-dihydropyridin-3-yl)carbamate] showed a pest or weed control at 250 ppm [1] greater than 50%.

In the case of `CCn1c(-c2c(F)cccc2F)c(N(C)C(=O)OC(C)(C)C)cc(Cl)c1=O` [Compound 2, tert-butyl (5-chloro-2-(2,6-difluorophenyl)-1-ethyl-6-oxo-1,6-dihydropyridin-3-yl)(methyl)carbamate], the pest or weed control at 250 ppm [1] is reported as greater than 50%.

`CCn1c(-c2c(F)cccc2F)c(NC)cc(Cl)c1=O` [Compound 3, 3-chloro-6-(2,6-difluorophenyl)-1-ethyl-5-(methylamino)-pyridin-2(1H)-one] was tested, and the pest or weed control at 250 ppm [1] was greater than 50% and the pest or weed control at 250 ppm [2] was greater than 50%.

Compound `CCn1c(-c2c(F)cccc2F)c(N(C)C)cc(Cl)c1=O` [Compound 4, 3-chloro-6-(2,6-difluorophenyl)-5-(dimethylamino)-1-ethyl-pyridin-2(1H)-one] has a pest or weed control at 250 ppm [1] greater than 50%, a pest or weed control at 250 ppm [3] greater than 50% and a pest or weed control at 250 ppm [2] greater than 50%.

In the case of `CCN(C)c1cc(Cl)c(=O)n(CC)c1-c1c(F)cccc1F` [Compound 5, 3-chloro-6-(2,6-difluorophenyl)-1-ethyl-5-(ethyl(methyl)-amino)pyridin-2(1H)-one], the pest or weed control at 250 ppm [1] is reported as greater than 50%, the pest or weed control at 250 ppm [3] is reported as greater than 50% and the pest or weed control at 250 ppm [2] is reported as greater than 50%.

Work on `CCn1c(-c2c(F)cccc2F)c(N=CN2CCCC2)cc(Cl)c1=O` [Compound 8, 3-chloro-6-(2,6-difluorophenyl)-1-ethyl-5-((pyrrolidin-1-yl-methylene)amino)pyridin-2(1H)-one] yielded a pest or weed control at 250 ppm [1] greater than 50%, a pest or weed control at 250 ppm [3] greater than 50% and a pest or weed control at 250 ppm [2] greater than 50%.

In the case of `CCN(C(=O)OC(C)(C)C)c1cc(Cl)c(=O)n(CC)c1-c1ccc(F)cc1` [Compound 17, tert-butyl (5-chloro-1-ethyl-2-(4-fluorophenyl)-6-oxo-1,6-dihydropyridin-3-yl)(ethyl)carbamate], the pest or weed control at 250 ppm [2] is reported as greater than 50%.

In the case of `CCNc1cc(Cl)c(=O)n(CC)c1-c1ccc(F)cc1` [Compound 20, 3-chloro-1-ethyl-5-(ethylamino)-6-(4-fluorophenyl)pyridin-2(1H)-one], the pest or weed control at 250 ppm [2] is reported as greater than 50%.

`CCn1c(-c2ccc(F)cc2Cl)c(NC(=O)OC(C)(C)C)cc(Cl)c1=O` [Compound 27, tert-butyl (5-chloro-2-(2-chloro-4-fluorophenyl)-1-ethyl-6-oxo-1,6-dihydropyridin-3-yl)carbamate] was tested, and the pest or weed control at 250 ppm [3] was greater than 50%.

In the case of `CCn1c(-c2ccc(F)cc2Cl)c(N)cc(Cl)c1=O` [Compound 32, 5-amino-3-chloro-6-(2-chloro-4-fluorophenyl)-1-ethylpyridin-2(1H)-one], the pest or weed control at 250 ppm [2] is reported as greater than 50%.

`CCn1c(-c2ccc(F)cc2Cl)c(N2CCCCC2)cc(Cl)c1=O` [Compound 44, 3-chloro-6-(2-chloro-4-fluorophenyl)-1-ethyl-5-(piperidin-1-yl)pyridin-2(1H)-one] was tested, and the pest or weed control at 250 ppm [1] was greater than 50%, the pest or weed control at 250 ppm [3] was greater than 50% and the pest or weed control at 250 ppm [2] was greater than 50%.

`CCn1c(-c2c(F)cccc2F)c(N)cc(Cl)c1=O` [Compound 59, 5-amino-3-chloro-6-(2,6-difluorophenyl)-1-ethylpyridin-2(1H)-one] showed a pest or weed control at 250 ppm [2] greater than 50%.

In the case of `CCn1c(-c2c(F)cccc2F)c(Nc2ccccc2)cc(Cl)c1=O` [compound 317, 3-chloro-6-(2,6-difluorophenyl)-1-ethyl-5-(phenylamino)pyridin-2(1H)-one], the pest or weed control at 250 ppm [1] is reported as greater than 50%, the pest or weed control at 250 ppm [3] is reported as greater than 50% and the pest or weed control at 250 ppm [2] is reported as greater than 50%.

`CCn1c(-c2ccc(F)cc2Cl)c(N2CCC(C)CC2)cc(Cl)c1=O` [compound 365, 3-chloro-6-(2-chloro-4-fluorophenyl)-1-ethyl-5-(4-methyl-piperidin-1-yl)pyridin-2(1H)-one] showed a pest or weed control at 250 ppm [1] greater than 50%, a pest or weed control at 250 ppm [3] greater than 50% and a pest or weed control at 250 ppm [2] greater than 50%.

`CCn1c(-c2c(F)cccc2F)c(N2CCOCC2)cc(Cl)c1=O` [compound 426, 3-chloro-6-(2,6-difluorophenyl)-1-ethyl-5-morpholinopyridin-2(1H)-one] gave a pest or weed control at 250 ppm [1] greater than 50%, a pest or weed control at 250 ppm [3] greater than 50% and a pest or weed control at 250 ppm [2] greater than 50%.
